e = 2'-O-(2-methoxyethyl) (MOE); d = 2'-deoxy (DNA)
Key:
human Factor XI mRNA [1] = assay: Antisense inhibition in HepG2 cells by microwalk gapmers, 8,000 nM, electroporation (Example 14); type: cell-based; conditions: HepG2 cells, 8,000 nM
How it was run: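 HepG2 cells electroporated with 8,000 nM 2′-MOE phosphorothioate gapmer (5-10-5, 5-8-5 or 6-8-6). Factor XI mRNA measured after ~24 h by qRT-PCR, normalised to RIBOGREEN total RNA. Reported as percent inhibition versus untreated cells.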

human Factor XI mRNA [2] = assay: Dose-dependent antisense inhibition in HepG2 cells, lipofectin (Example 2); type: cell-based; conditions: approximately 16 hours
Method: Cells were plated at a density of 10,000 cells per well and transfected using lipofectin reagent with 9.375 nM, 18.75 nM, 37.5 nM, 75 nM, and 150 nM concentrations of antisense oligonucleotide, as specified in Table 3. After a treatment period of approximately 16 hours, RNA was isolated from the cells and Factor XI mRNA levels were measured by quantitative real-time PCR. Human Factor XI primer probe set RTS 2966 (forward sequence: […], incorporated herein as SEQ ID NO: 3; reverse sequence: […], incorporated herein as SEQ ID NO: 4; probe sequence: TTGTCTACTGAAGCACACCCAAACAGGGAX, wherein X is the fluorophore, incorporated herein as SEQ ID NO: 5) was used to measure mRNA levels. Factor XI mRNA levels were adjusted according to total RNA content, as measured by RIBOGREEN®. Results are presented as percent inhibition of Factor XI, relative to untreated control cells.

human Factor XI mRNA [3] = assay: Antisense inhibition in HepG2 cells by microwalk gapmers, 75 nM, lipofectin (Example 3); type: cell-based; conditions: HepG2 cells, 75 nM, oligonucleotides targeted to nucleobases 1275 to 1318 of SEQ ID NO: 1
How it was run: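 HepG2 cells (10,000 per well) were transfected with 75 nM gapmer using lipofectin and treated for about 24 h. Factor XI mRNA was quantified by real-time PCR, normalized to RiboGreen total RNA and expressed as percent inhibition versus untreated controls.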

[4] = set-up: species or system Sprague-Dawley rats; conditions: rat, in vivo, sc, 20 mg/kg
Method: The concentration of the full-length oligonucleotide as well as the total oligonucleotide concentration (including the degraded form) was measured. The method used is a modification of previously published methods (Leeds et al., 1996; Geary et al., 1999) which consist of a phenol-chloroform (liquid-liquid) extraction followed by a solid phase extraction. An internal standard (ISIS 355868, a 27-mer 2′-O-methoxyethyl modified phosphorothioate oligonucleotide, […], designated herein as SEQ ID NO: 270) was added prior to extraction. […] The results are presented in Tables 98 and 99, expressed as μg/g liver or kidney tissue.

human Factor XI mRNA [5] = assay: Dose-dependent inhibition and IC50 in HepG2 cells, electroporation (Example 15); type: cell-based
Method: Cells were plated at a density of 20,000 cells per well and transfected using electroporation with 123.46 nM, 370.37 nM, 1,111.11 nM, 3,333.33 nM and 10,000 nM concentrations of antisense oligonucleotide, as specified in Table 52. After a treatment period of approximately 16 hours, RNA was isolated from the cells and Factor XI mRNA levels were measured by quantitative real-time PCR. Human Factor XI primer probe set RTS 2966 was used to measure mRNA levels. Factor XI mRNA levels were adjusted according to total RNA content, as measured by RIBOGREEN. Results are presented as percent inhibition of Factor XI, relative to untreated control cells.

human Factor XI mRNA [6] = assay: Dose-dependent inhibition in HepG2 cells, lipofectin (Example 4); type: cell-based; conditions: 16 hours
How it was run: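 HepG2 cells at 10,000 per well were lipofectin-transfected with 9.375, 18.75, 37.5 or 75 nM antisense oligonucleotide for about 16 h. Factor XI mRNA was quantified by real-time PCR (primer probe set RTS 2966) and normalised to RIBOGREEN total RNA. Values are percent inhibition versus untreated cells.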

human Factor XI mRNA [7] = assay: Dose-dependent inhibition in HepG2 cells, electroporation (Example 4); type: cell-based; conditions: 16 hours
How it was run: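 HepG2 cells electroporated with 0.7, 2.2, 6.7 or 20 μM antisense gapmer and harvested after ~16 h. Factor XI mRNA quantified by qRT-PCR (primer probe set RTS 2966), normalised to total RNA (RIBOGREEN). Reported as percent inhibition versus untreated control cells.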

Substance | Percent inhibition of human Factor XI mRNA levels (human Factor XI mRNA [1]) [%] | percent inhibition of Factor XI (human Factor XI mRNA [2]; 9.375 nM) [%] | percent inhibition of Factor XI (human Factor XI mRNA [2]; 18.75 nM) [%] | percent inhibition of Factor XI (human Factor XI mRNA [2]; 37.5 nM) [%] | percent inhibition of Factor XI (human Factor XI mRNA [2]; 75 nM) [%] | percent inhibition of Factor XI (human Factor XI mRNA [2]; 150 nM) [%] | % inhibition of human Factor XI mRNA levels (human Factor XI mRNA [3]) [%] | Half-life in the liver and kidney [4] [days] | percent inhibition of Factor XI mRNA (human Factor XI mRNA [5]; electroporation, 123.47 nM) [%] | percent inhibition of Factor XI mRNA (human Factor XI mRNA [5]; electroporation, 370.37 nM) [%] | percent inhibition of Factor XI mRNA (human Factor XI mRNA [5]; electroporation, 1,111.11 nM) [%] | percent inhibition of Factor XI mRNA (human Factor XI mRNA [5]; electroporation, 3,333.33 nM) [%] | percent inhibition of Factor XI mRNA (human Factor XI mRNA [5]; electroporation, 10,000.0 nM) [%] | other results
412223 (antisense ACAGTTTCTGGCAGGCCTCG; sugars from the 5' end e5 d10 e5, backbone and methylation of C not given here) [compound 412223] | 62 | 33 | 48 | 62 | 76 | 81 | 85 | 22 | – | – | – | – | – | –
412224 (antisense GCATTGGTGCACAGTTTCTG; sugars from the 5' end e5 d10 e5, backbone and methylation of C not given here) [compound 412224] | 84 | 24 | 45 | 57 | 70 | 81 | 93 | 17 | – | – | – | – | – | –
412225 (antisense GCAGCGGACGGCATTGGTGC; sugars from the 5' end e5 d10 e5, backbone and methylation of C not given here) [compound 412225] | 86 | 32 | 42 | 65 | 78 | 73 | 86 | 21 | – | – | – | – | – | –
413481 (antisense GGTGCACAGTTTCTGGCAGG; sugars from the 5' end e5 d10 e5, backbone and methylation of C not given here) [compound 413481] | 82 | 22 | 38 | 56 | 67 | 83 | – | 21 | – | – | – | – | – | –
413482 (antisense GGACGGCATTGGTGCACAGT; sugars from the 5' end e5 d10 e5, backbone and methylation of C not given here) [compound 413482] | 88 | 26 | 39 | 59 | 74 | 82 | 89 | 20 | – | – | – | – | – | –
416851 (antisense GTGCACAGTTTCTGGCAGGC; 5-10-5 gapmer, wing sugar chemistry not given here, further chemistry not given here) [compound 416851] | 89 | – | – | – | – | – | 88 | 24 | 13 | 35 | 36 | 64 | 72 | –
416856 (antisense GGCATTGGTGCACAGTTTCT; 5-10-5 gapmer, wing sugar chemistry not given here, further chemistry not given here) [compound 416856] | 84 | – | – | – | – | – | 95 | 19 | 12 | 23 | 35 | 59 | 83 | percent inhibition of Factor XI mRNA, relative to untreated control cells (human Factor XI mRNA [6]; 9.375 nM): 21%; percent inhibition of Factor XI mRNA, relative to untreated control cells (human Factor XI mRNA [6]; 18.75 nM): 45%; percent inhibition of Factor XI mRNA, relative to untreated control cells (human Factor XI mRNA [6]; 37.5 nM): 58%; percent inhibition of Factor XI mRNA, relative to untreated control cells (human Factor XI mRNA [6]; 75 nM): 74%; percent inhibition of Factor XI mRNA, relative to untreated control cells (human Factor XI mRNA [7]; 0.7 μM): 0%; percent inhibition of Factor XI mRNA, relative to untreated control cells (human Factor XI mRNA [7]; 2.2 μM): 29%; percent inhibition of Factor XI mRNA, relative to untreated control cells (human Factor XI mRNA [7]; 6.7 μM): 47%; percent inhibition of Factor XI mRNA, relative to untreated control cells (human Factor XI mRNA [7]; 20 μM): 93%
416860 (antisense CGGACGGCATTGGTGCACAG; 5-10-5 gapmer, wing sugar chemistry not given here, further chemistry not given here) [compound 416860] | 89 | – | – | – | – | – | 88 | 21 | 0 | 28 | 39 | 41 | 40 | –
416861 (antisense GCGGACGGCATTGGTGCACA; 5-10-5 gapmer, wing sugar chemistry not given here, further chemistry not given here) [compound 416861] | 90 | – | – | – | – | – | 92 | 25 | 0 | 15 | 27 | 66 | 80 | –
416866 (antisense CTGGCAGCGGACGGCATTGG; 5-10-5 gapmer, wing sugar chemistry not given here, further chemistry not given here) [compound 416866] | 84 | – | – | – | – | – | 88 | 16 | – | – | – | – | – | –
416867 (antisense ACTGGCAGCGGACGGCATTG; 5-10-5 gapmer, wing sugar chemistry not given here, further chemistry not given here) [compound 416867] | 85 | – | – | – | – | – | 83 | 19 | – | – | – | – | – | –
